These results are taken from a melting point compilation (Tetko et al.; mined from patent text by program, amines drawn as free bases though some values may be those of a salt).

Consider `O=C1C(=O)c2ccc(-c3cccc(C(F)(F)F)c3)cc2C2=C1SCC1(CCNCC1)O2`, for which the melting point (as a rule, the temperature of the solid-liquid transition) is 199 to 203 °C.

Regarding `c1ccc(Nc2nnn[nH]2)cc1`, the melting point is 208 to 209 °C.

As for `COc1cc2c(cc1OC)C(C(S)(C#N)CCC(=O)OCCC(C)C)=NCC2` (centres undefined), the melting point is 120 °C.

`CC1(C)OC(C=Cc2ccc(C#N)cc2)=CC1=O` yielded a melting point of 170 °C.

As for `COc1cc2c(cc1OC)-c1c(C)nc(Nc3c(C)cccc3C)n1CC2`, the melting point lay in the range of 234 to 236 °C.

Consider `Nc1cccc(-c2ccc(CCN3CCN(c4nnnn4-c4ccc(F)cc4)CC3)cc2)n1`, for which the melting point lay in the range of 185 to 187 °C.

Turning to `Cc1ccc2c(c1)NC(=O)c1cc(C)sc1O2`, the melting point was in the range of 175 to 179 °C.

In turn, `N#Cc1ccc(OCCCCN2C(=O)c3ccccc3C2=O)cc1` displayed a melting point of 129 to 130 °C.

Regarding `COc1cc(CN2CCC(=C3c4ccccc4CCn4ccnc43)CC2)cc(OC)c1OCc1ccc2ccccc2n1`, the melting point is 215 °C.

On to `COc1cc(C(=O)N2CCN(C(=O)c3cc(OC)c(OC)c(OC)c3)C(COC(=O)N3CCCCC3)C2)cc(OC)c1OC` (centres undefined), for which the melting point is 147 °C.

Turning to `CN1C(=O)N(CC(=O)COC(C)(C)C)C(=O)C1(C)C`, the melting point lay in the range of 61 to 63 °C.

`N#Cc1cnn(-c2ccc(NN)nn2)c1N` showed a melting point of 264 to 266 °C.

As to `Cc1[nH]c(=O)ccc1-c1ccc(S(C)=O)cc1` (centres undefined), the melting point lay in the range of 262 to 264 °C.

Regarding `Cc1cccc(N2CCN(c3ccc(S(C)(=O)=O)nn3)CC2)c1`, the melting point is 201 °C.

In turn, `CCCC12CSC(SC1)SC2` gave a melting point of 139 °C.

The compound `C=Cc1ccc2c(c1)c1ccccc1n2CC` returned a melting point of 66 to 67 °C.

`Cc1c(-c2ccc(OCc3ccccc3)cc2)n(Cc2ccc(OCCCCl)cc2)c2ccc(OCc3ccccc3)cc12`: the melting point is 130 to 132 °C.

With `O=C(Cl)c1ccc(OCc2ccccc2)c(Cl)c1`, the melting point was 78 to 80 °C.

For the compound `Cc1ccc(Oc2ccc(Br)cc2O)c(O)c1`, the melting point was in the range of 95 to 97 °C.

On to `CC1(C)CC(C)(O)C2C3CCCCC3C2(C)C1` (centres undefined), for which the melting point was in the range of 76.6 to 77.4 °C.

Take `COc1ccc(CC(NC(c2ccccc2)c2ccccc2)P(O)O)cc1` (centres undefined): the melting point was in the range of 199 to 202 °C.

As to `Cc1c(NC(=O)c2ccc(-c3ccc(F)cc3)cc2)ccc2cc(CN3CCCC3)cnc12`, the melting point lay within 220 to 222 °C.

As for `OC(CC1CCN(Cc2ccccc2)CC1)c1ccc(F)cc1` (centres undefined), the melting point was in the range of 84 to 86 °C.

On to `NC(=S)NN=C(CCC(=O)NCc1ccccc1)c1ccccc1`, for which the melting point was in the range of 162 to 164 °C.

`CCOC(=O)CSc1nc(Cl)cc(Nc2cccc(C)c2C)n1`: the melting point fell in the range of 88 to 93 °C.

In turn, `C1=C(c2c[nH]c3ccccc23)CCN(CC2COc3ccc4[nH]ccc4c3O2)C1` (centres undefined) registered a melting point of 126 °C.

The compound `CCOC(=O)c1sc2cc(COc3cccnc3)ccc2c1S(=O)c1cccc(OC)c1` (centres undefined) had a melting point of 113 to 115 °C.

As to `O=C1C(CCO)Oc2cc([N+](=O)[O-])ccc2N1Cc1cccc(Cl)c1` (centres undefined), the melting point lay within 100 to 102 °C.

With `COc1cc(Br)c2c(c1OC)C(=O)CC2`, the melting point lay in the range of 180 to 182 °C.

The compound `C=CC(=O)N1CCc2cc(OC)c(OC)cc2C12CCC(C(=O)OCC)(C(=O)OCC)CC2C1c2cc(OC)c(OC)cc2CCN1C(C)=O` (centres undefined) showed a melting point of 162 to 165 °C.

`CC(O)c1c(Cl)nc2n(c1=O)CCS2` (centres undefined): the melting point lay in the range of 171 to 172 °C.

In the case of `CCCc1c(OCC(O)COc2ccc3c(=O)cc(C=CC(=O)O)oc3c2CCC)ccc(C(C)=O)c1O` (centres undefined), the melting point was in the range of 101 to 103 °C.

`CCN1CCc2ccc(OC)c(Nc3ncc(Cl)c(Nc4ccc(N5CCOCC5)cc4OC)n3)c2CC1=O` showed a melting point of 87 to 103 °C.

Compound `CCOP(=O)(OCC)Oc1cc(CC)ccc1C1CCN(CCCCNC(=O)c2ccc(NC(=O)c3ccc(Cl)cc3)cc2)CC1` yielded a melting point of 158 to 160 °C.

Regarding `CN(c1cc2c3c(c1)CCCC3CCC2)c1ncc(C(=O)O)cn1`, the melting point lay in the range of 255 to 256 °C.

Compound `Cc1ccc(C2CC3C=CC2C3)n1CCC1CC(O)CC(=O)O1` (centres undefined) registered a melting point of 125 to 126 °C.

`Oc1ccc(Cl)cc1CCc1ccccn1` registered a melting point of 135 to 137 °C.

Compound `CCCC(CO)N1CC(COc2cccc(Cl)c2)OC1=O` (centres undefined) showed a melting point of 79 to 81 °C.

The compound `CCCCS(=O)(=O)N(C)CCN1CC(c2ccc3c(c2)OCO3)C(C(=O)O)C1c1ccc(OC)cc1` (centres undefined) registered a melting point of 64 to 66 °C.

Compound `CC(=O)OCC(CCn1cnc2c(Cl)nc(N)nc21)COC(C)=O` yielded a melting point of 135 to 137 °C.

In turn, `CC1(C)C(=O)C(c2cc(F)cc(F)c2)=C1c1ccc(S(C)(=O)=O)cc1` yielded a melting point of 113 to 114 °C.

`CCOC(=O)c1cnn(-c2ccc3ccccc3n2)c1S(N)(=O)=O`: the melting point fell in the range of 140 to 141 °C.

As to `O=C(C=Cc1ccc(Cl)cc1)C(Cc1ccccc1)c1ccccc1` (centres undefined), the melting point was in the range of 113 to 115 °C.

With `Cc1ccc(NC(=O)Cc2ccccc2)cc1`, the melting point was in the range of 119 to 120 °C.

`CC(C)(C)c1ccc(N2C[C@@H](COc3ccc(C(=O)O)cc3)CC2=O)cc1`: the melting point was 247 to 248 °C.

The compound `COC(=O)c1ccc([C@H]2CC[C@H](C=O)CC2)cc1` gave a melting point of 84 to 85 °C.

`CCCn1c(=O)n(CCC)c2cc3c(N4CCN(C(=O)Nc5ccc(Oc6ccccc6)cc5)CC4)ncnc3cc21`: the melting point lay within 179 to 180 °C.

`CN(C)c1nn(-c2cc(F)c(C#N)cc2F)c(=O)n1C` displayed a melting point of 131 to 133 °C.

With `Cc1nccn1-c1nc(-c2ccc(Cl)cc2)c(CCCOc2ccccc2CCCO)o1`, the melting point fell in the range of 119 to 120 °C.

As to `COc1ccc(COc2c(C)c(C)c3c(c2C)CC2(CCN(Cc4ccccc4)CC2)O3)cc1`, the melting point lay in the range of 85 to 86 °C.

`CC(CCC(=O)Cl)C1CCC2C3CCC4CCCCC4(C)C3CCC12C` (centres undefined) yielded a melting point of 104 to 106 °C.

`CCOC(=O)c1ccc(C2=NOCCS2)cc1` yielded a melting point of 69 to 70 °C.

On to `CS(=O)(=O)c1ccc(-c2cc(CO[N+](=O)[O-])nn2Cc2ccccc2)cc1`, for which the melting point was in the range of 94 to 96 °C.

`CNn1c(C)nn(C(=O)NC(C)(C)CCc2ccccc2)c1=O` displayed a melting point of 102 °C.

Compound `CCc1cc2oc3cc(-c4ccccc4Cl)c4c(c3c2cc1OC)C(=O)NC4=O` returned a melting point of 252 to 257 °C.

With `NC(=NO)c1ncn2c1nc(N1CCOCC1)c1ccccc12`, the melting point lay within 212 to 213 °C.

Compound `CCCc1c(OCCCOc2ccc(C(=O)C(=O)O)cc2)ccc(C(C)=O)c1OC` gave a melting point of 94 to 96 °C.

In turn, `CCOC(=O)Cn1c(=S)c2ccccc2n(Cc2ccc(Cl)cc2Cl)c1=O` had a melting point of 138 to 139 °C.

For `CCOC(=O)c1cnc2ccc(OCC)nc2c1O`, the melting point lay within 275 to 278 °C.

In turn, `Cc1nc(-c2ccc(-c3cc(C(F)(F)F)nn3-c3ccc(S(C)(=O)=O)c(F)c3)cc2)cs1` registered a melting point of 139 to 141 °C.

For the compound `CCN(CC)CCOc1ccc2cc3ccc(OCCN(CC)CC)c(CN4C(=O)c5ccccc5C4=O)c3nc2c1CN1C(=O)c2ccccc2C1=O`, the melting point lay in the range of 242 to 244 °C.

In the case of `CC1=C(C)C(=O)N(OC(=S)N(C)C)C1=O`, the melting point was 135 to 138 °C.

`Nc1ccc(-c2ccc3nnn(Cc4ccc5ncccc5c4)c3n2)cn1` had a melting point of 194 to 197 °C.

`Cn1nc(C=O)cc1C(C)(C)CNC(=O)c1ccccc1` returned a melting point of 150 to 151 °C.

`O=Cc1cc(-c2ccc(O)c(O)c2)c2cc(O)c(O)cc2c1O` gave a melting point above 300 °C.

In turn, `Oc1ccc2c(c1)CCCC(c1ccccc1)=C2c1ccc(OCCCCCCCl)cc1` came in with a melting point of 193 °C.

Regarding `N=C(N)Nc1nc(-c2ccccc2[N+](=O)[O-])cs1`, the melting point lay within 176 to 178 °C.

On to `CN1CCN(c2c(F)c(F)c3c(=O)c(C(=O)O)cn(C4CC4)c3c2F)CC1`, for which the melting point turned out to be 245 °C.

`CN1CCC(N2C(=O)Nc3ccccc3C2c2ccccc2)CC1` (centres undefined): the melting point fell in the range of 252 to 253 °C.

The compound `OC1COC(c2ccccc2)OC1` (centres undefined) registered a melting point of 83 to 84 °C.

Compound `CC(C)Cn1c(=O)n(C)c(=O)c2c(SCCCC(=O)O)n(Cc3cccc4ccccc34)nc21` showed a melting point of 149 °C.

The compound `CN1C(=O)N(c2ccc(C#N)c(C(F)(F)F)c2)C(=O)C1(CF)CF` yielded a melting point of 137 to 138 °C.

The compound `O=C(Cc1ccc(O)c(Cl)c1)Oc1cc(Cl)c(Cl)cc1Cl` showed a melting point of 77 °C.

`CC(=O)Nc1cccc(-c2csc3nc(C45CC6CC(CC(C6)C4)C5)cn23)c1` returned a melting point of 98 to 100 °C.

In turn, `N#Cc1ccc(OCCCNCCO)cc1` yielded a melting point of 88 °C.

`COc1cccc(-n2nc(-c3ccccc3)c3cccnc32)c1`: the melting point was in the range of 102 to 105 °C.

`CCOC(=O)/C=C/c1ccc(O)c(Cl)c1` returned a melting point of 104 to 106 °C.

`c1cnc(N2CCN(CCCCn3cccn3)CC2)nc1` came in with a melting point of 124 °C.

Take `COc1ccccc1C(=O)Nc1ccc(C(=O)N2Cc3cccn3Cc3ccccc32)cc1`: the melting point lay within 185 to 188 °C.

As to `O=C(O)c1ccnc(-c2cccc3cc(Cc4cc(F)cc(Cl)c4)sc23)c1`, the melting point was 205 to 206 °C.

For `Cc1c(F)c(Br)cc2c1c(=O)c(C(=O)O)cn2C1CC1`, the melting point lay in the range of 237 to 239 °C.

`Cc1nc(OC(C)C(=O)O)nn1-c1ccccc1` (centres undefined) registered a melting point of 157 to 159 °C.

Consider `O=C(O)CCCC=C(c1cccnc1)c1cccc(NC(=S)Nc2ccc(Cl)cc2Cl)c1`, for which the melting point was 154 to 155 °C.

Compound `COC(=O)CCc1conc1-c1ccc(Cl)c(Cl)c1` had a melting point of 87 to 88 °C.

In turn, `CCOC(=O)N1CCC(c2ccc(N3CC(COC)OC3=O)cc2)CC1` (racemic) had a melting point of 86 to 88 °C.

The compound `O=C(O)Cc1cccc(C(=O)c2ccccc2)c1[N+](=O)[O-]` came in with a melting point of 160 to 162 °C.

In turn, `N#CC(C#N)=C1Sc2nc3ccc(Cl)cc3nc2S1` displayed a melting point above 300 °C.

Take `CCC1C(=O)Nc2c(C(=O)c3ccc(Cl)cc3)cccc21` (centres undefined): the melting point fell in the range of 140 to 145 °C.

Consider `Cc1ccc(-c2nc(O)cc(O)n2)cc1`, for which the melting point is 314 °C.
